The results in this text go back to US12391671B2, “Allosteric EGFR inhibitors and methods of use thereof” (Dana-Farber Cancer Institute, Inc., priority 2019, dated 2025).

In test [1] the test system is EGFR mutant L858R/T790M Ba/F3 cells. In words: Ba/F3 cell proliferation model (Cell Titer Glo), EGFR L858R/T790M. The test is classed as cell-based, murine. Particulars: 72 hours. From the text: Example 26: Ba/F3 Cell Proliferation Models
The EGFR mutant L858R and L858R/T790M Ba/F3 cells have been previously described (Zhou, W., et al. Nature 462, 2009, 1070-1074). All cell lines were maintained in RPM 1640 (Cellgro; Mediatech Inc., Herndon. CA) supplemented with 10% FBS, 100 units/mL penicillin, 100 units/mL streptomycin. The EGFR I941R mutation was introduced via site directed mutagenesis using the Quick Change Site-Directed Mutagenesis kit (Stratagene; La Jolla, CA) according to the manufacturer's instructions. All constructs were confirmed by DNA sequencing. The constructs were shuttled into the retroviral vector JP1540 using the Cre-recombination system (Agilent Technologies, Santa Clara, CA). Ba/F3 cells were then infected with retrovirus per standard protocols, as described previously (Zhou, et al, Nature 2009). Stable clones were obtained by selection in puromycin (2 μg/ml).
Growth and inhibition of growth was assessed by the Cell Titer Glo® assay (Promega, Madison, WI) and was performed according to the manufacturer's instructions. The Cell Titer Glo® assay is a luminescence-based method used to determine the number of viable cells based on quantitation of the ATP present, which is directly proportional to the amount of metabolically active cells present. Ba/F3 cells of different EGFR genotypes were exposed to compounds as a single agent or in combination with 1 μg/mL cetuximab for 72 hours and the number of cells used per experiment was determined empirically as has been previously established (Zhou, et al., Nature 2009). All experimental points were set up in triplicates in 384-well plates and all experiments were repeated at least three times. […] The curves were fitted using a non-linear regression model with a sigmoidal dose response.
In general terms: ATP-based viability assays read luminescence as a measure of living cells.

Another test has as its target EGFR L858R/T790M (Homo sapiens (Human), UniProt P00533, L858R/T790M). In words: HTRF-based EGFR biochemical assay (L858R/T790M). The settings on record: 100 μM ATP, enzyme 0.02 nM. The method, then:
(§1) Example 25: HTRF-Based EGFR Biochemical Assays
(§2) EGFR biochemical activity measurements were carried out using the homogeneous time-resolved fluorescence (HTRF) assay (Cisbio), inhibitors and DMSO normalizations were first dispensed to empty black low-volume 384-well plates (Corning) with 0300 digital liquid dispenser (HP). All reactions were carried out at room temperature and solutions were added to plates with a Multidrop Combi Reagent Dispenser (ThermoFisher). The reaction mixture (10 μL final volume) contained 1 μM tyrosine kinase peptide-biotin substrate and mutant EGFR in a reaction buffer (50 mM HEPES pH 7.0, 5 mM MgCl2, 1 mM MnCl2, 0.01% BSA, 2 mM TCEP, 0.1 mM NaVO4). Enzyme concentrations were adjusted to accommodate varying kinase activities (L858R 0.1 nM, L858R/T790M 0.02 nM). Enzyme reaction solution (2× concentrations, 5 μL) was added to 384-well plates containing compounds and incubated for 30 mins. Enzyme reactions were initiated with the addition of 5 μL of ATP to a final concentration of 100 μM and reacted for 20 mins. Reactions were quenched with the addition of 10 μL of phospho-tyrosine antibody-Europium(III) cryptate (1-to-180 volume ratio) and Streptavidin-XL665 (46.7 nM) in EDTA-containing detection buffer, then incubated at room temperature for 1 hour, and read with a PHERAstar plate reader (excitation=337 nm, emission=620 nm and 665 nm).

The target in another test is EGFR L858R (Homo sapiens (Human), UniProt P00533, L858R). In words: HTRF-based EGFR biochemical assay (L858R). Particulars: 100 μM ATP, enzyme 0.1 nM. On the procedure: as §1, §2
For orientation: Time-resolved FRET reads energy transfer from a long-lived donor to a nearby acceptor.

The mark [2] stands for this setting: Mus musculus, BaF3, single agent, read-out: Cell IC50 BaF3 EGFR L858R/T790M.
Setting [3] is: in combination with 1 μg/mL cetuximab, read-out: Cell IC50 BaF3 EGFR L858R/T790M (+cetux.).

Each structure is given as a SMILES string. Structures can show the parent of a compound that is named as a salt. Where two headings read alike, the source gives them in different places. A value given as a limit tells only on which side of the number the result lay.

EGFR L858R/T790M, sequence (P00533 25-1210 T790M/L858R): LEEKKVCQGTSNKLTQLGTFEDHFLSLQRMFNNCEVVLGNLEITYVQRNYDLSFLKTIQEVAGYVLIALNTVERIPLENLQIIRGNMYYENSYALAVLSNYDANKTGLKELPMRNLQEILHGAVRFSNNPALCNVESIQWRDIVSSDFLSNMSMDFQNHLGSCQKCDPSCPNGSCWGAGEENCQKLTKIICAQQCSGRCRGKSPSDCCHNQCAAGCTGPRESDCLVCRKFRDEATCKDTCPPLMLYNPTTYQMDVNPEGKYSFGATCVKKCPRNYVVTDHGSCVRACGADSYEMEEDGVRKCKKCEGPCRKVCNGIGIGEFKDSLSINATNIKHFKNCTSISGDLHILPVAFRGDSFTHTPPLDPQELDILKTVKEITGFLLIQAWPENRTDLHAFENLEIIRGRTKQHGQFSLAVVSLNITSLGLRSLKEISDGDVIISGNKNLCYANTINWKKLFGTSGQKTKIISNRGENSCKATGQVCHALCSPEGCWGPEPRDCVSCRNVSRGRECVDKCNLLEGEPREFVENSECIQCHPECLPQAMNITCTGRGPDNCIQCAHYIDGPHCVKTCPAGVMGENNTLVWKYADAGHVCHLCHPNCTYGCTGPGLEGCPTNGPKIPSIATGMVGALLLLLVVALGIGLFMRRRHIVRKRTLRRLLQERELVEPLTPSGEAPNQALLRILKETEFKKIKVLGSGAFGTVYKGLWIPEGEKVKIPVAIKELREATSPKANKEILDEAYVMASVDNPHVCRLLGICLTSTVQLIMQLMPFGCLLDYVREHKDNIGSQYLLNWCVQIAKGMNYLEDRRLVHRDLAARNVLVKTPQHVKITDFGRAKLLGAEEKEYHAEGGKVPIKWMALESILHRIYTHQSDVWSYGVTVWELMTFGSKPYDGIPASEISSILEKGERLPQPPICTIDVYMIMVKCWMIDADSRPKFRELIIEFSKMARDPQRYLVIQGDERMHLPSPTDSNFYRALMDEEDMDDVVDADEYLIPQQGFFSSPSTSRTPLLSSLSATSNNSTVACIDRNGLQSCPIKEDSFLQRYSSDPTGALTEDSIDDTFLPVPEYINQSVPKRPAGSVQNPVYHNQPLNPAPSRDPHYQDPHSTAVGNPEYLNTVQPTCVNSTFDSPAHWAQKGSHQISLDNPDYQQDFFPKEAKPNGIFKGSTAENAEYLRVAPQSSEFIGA
EGFR L858R, sequence (P00533 25-1210 L858R): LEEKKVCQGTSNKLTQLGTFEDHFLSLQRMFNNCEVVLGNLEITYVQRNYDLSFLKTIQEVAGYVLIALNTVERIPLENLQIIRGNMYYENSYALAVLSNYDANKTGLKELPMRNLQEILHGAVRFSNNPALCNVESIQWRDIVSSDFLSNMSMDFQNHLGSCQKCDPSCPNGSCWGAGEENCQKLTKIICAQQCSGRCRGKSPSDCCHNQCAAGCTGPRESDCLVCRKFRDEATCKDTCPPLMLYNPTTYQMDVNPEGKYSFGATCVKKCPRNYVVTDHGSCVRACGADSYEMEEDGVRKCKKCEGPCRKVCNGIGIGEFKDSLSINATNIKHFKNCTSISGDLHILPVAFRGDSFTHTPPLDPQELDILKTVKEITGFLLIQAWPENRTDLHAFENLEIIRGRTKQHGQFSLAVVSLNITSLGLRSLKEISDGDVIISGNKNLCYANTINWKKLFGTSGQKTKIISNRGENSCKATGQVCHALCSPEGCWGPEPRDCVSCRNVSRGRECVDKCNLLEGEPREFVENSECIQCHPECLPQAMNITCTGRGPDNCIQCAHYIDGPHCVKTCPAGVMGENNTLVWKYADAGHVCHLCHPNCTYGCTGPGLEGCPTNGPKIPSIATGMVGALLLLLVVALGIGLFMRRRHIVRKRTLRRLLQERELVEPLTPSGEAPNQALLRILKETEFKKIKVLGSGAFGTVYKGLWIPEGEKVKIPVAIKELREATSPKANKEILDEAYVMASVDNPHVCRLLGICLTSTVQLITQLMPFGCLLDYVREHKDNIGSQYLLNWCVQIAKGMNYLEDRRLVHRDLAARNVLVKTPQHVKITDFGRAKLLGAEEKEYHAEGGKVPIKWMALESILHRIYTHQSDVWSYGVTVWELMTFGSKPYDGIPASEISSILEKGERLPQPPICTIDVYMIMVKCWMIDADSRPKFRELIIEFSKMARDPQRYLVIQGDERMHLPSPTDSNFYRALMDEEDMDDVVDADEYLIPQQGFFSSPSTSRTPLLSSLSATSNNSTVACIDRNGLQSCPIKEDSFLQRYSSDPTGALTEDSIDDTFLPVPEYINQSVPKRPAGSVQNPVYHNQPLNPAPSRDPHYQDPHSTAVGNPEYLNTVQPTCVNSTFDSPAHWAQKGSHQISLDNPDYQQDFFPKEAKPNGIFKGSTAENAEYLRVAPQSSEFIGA

For the compound `[2H][C@@](c1nc2ccccc2[nH]1)(c1cc(F)ccc1O)N1Cc2ccc(-c3ccc(C4CCN(C)CC4)cc3)cc2C1=O` (single isomer, unassigned) [Compound 037], the IC50 came to 160 nM in test [1] (setting [2]) and 4 nM in test [1] (setting [3]).

Turning to `CN1CCC(c2ccc(-c3ccc4c(c3)C(=O)N([C@H](c3nc5ccccc5[nH]3)c3cc(F)ccc3O)C4)cc2)CC1` (single isomer, unassigned) [Compound 037], the IC50 was 0.5 nM against EGFR L858R/T790M and 1.4 nM on EGFR L858R.

For the compound `[2H][C@](c1nc2ccccc2[nH]1)(c1cc(F)ccc1O)N1Cc2ccc(-c3ccc(C4CCN(C)CC4)cc3)cc2C1=O` (single isomer, unassigned) [Compound 038], the IC50 in test [1] (setting [2]) turned out to be 930 nM; in test [1] (setting [3]), 41 nM.

On to `CN1CCC(c2ccc(-c3ccc4c(c3)C(=O)N([C@@H](c3nc5ccccc5[nH]3)c3cc(F)ccc3O)C4)cc2)CC1` (single isomer, unassigned) [Compound 038], for which the IC50 turned out to be 6 nM against EGFR L858R/T790M and 18 nM at EGFR L858R.

Consider `CN1CCC(c2ccc(-c3cc(F)c4c(=O)n([C@H](c5nc6ccccc6[nH]5)c5cc(F)ccc5O)ccc4c3)cc2)CC1` (single isomer, unassigned) [Compound 066], for which the IC50 on EGFR L858R/T790M stood at 3 nM; at EGFR L858R, 14 nM.

Regarding `CN1CCC(c2ccc(-c3ccc4c(=O)n([C@@H](c5nc6ccccc6[nH]5)c5cc(F)ccc5O)ccc4c3)cc2)CC1` (single isomer, unassigned) [Compound 067], the IC50 against EGFR L858R/T790M was 4 nM; at EGFR L858R it was 11 nM.

Regarding `CN1CCC(c2ccc(-c3ccc4c(=O)n([C@H](c5nc6ccccc6[nH]5)c5cc(F)ccc5O)ccc4c3)cc2)CC1` (single isomer, unassigned) [Compound 068], the IC50 at EGFR L858R/T790M stood at 166 nM; on EGFR L858R it was 756 nM.

On to `CN1CCC(c2ccc(-c3ccc4c(c3)C(=S)N([C@H](c3nc5ccccc5[nH]3)c3cc(F)ccc3O)C4)cc2)CC1` (single isomer, unassigned) [Compound 084], for which the values for the IC50 on EGFR L858R/T790M and on EGFR L858R were 232 nM and 219 nM, respectively.

In the case of `Cc1c[nH]c([C@@H](c2cc(F)ccc2O)N2Cc3ccc(-c4ccc(C5CCN(C)CC5)cc4)c(F)c3C2=O)n1` (single isomer, unassigned) [Compound 94], the IC50 against EGFR L858R/T790M came to 2 nM; against EGFR L858R it was 1 nM.

Take `Cc1c[nH]c([C@H](c2cc(F)ccc2O)N2Cc3ccc(-c4ccc(C5CCN(C)CC5)cc4)c(F)c3C2=O)n1` (single isomer, unassigned) [Compound 095]: the IC50 amounted to 59 nM on EGFR L858R/T790M and 92 nM at EGFR L858R.

For `Cc1c[nH]c([C@@H](c2cc(F)ccc2O)N2Cc3ccc(-c4ccc(C5CCN(C)CC5)cc4)cc3C2=O)n1` (single isomer, unassigned) [Compound 104], the IC50 amounted to 2 nM on EGFR L858R/T790M and 1 nM on EGFR L858R.

For `Cc1c[nH]c([C@H](c2cc(F)ccc2O)N2Cc3ccc(-c4ccc(C5CCN(C)CC5)cc4)cc3C2=O)n1` (single isomer, unassigned) [Compound 105], the IC50 on EGFR L858R/T790M was determined as 49 nM; on EGFR L858R it was 65 nM.

In the case of `CN1CCC(c2ccc(-c3ccc4c(n3)C(=O)N([C@@H](c3nc5ccccc5[nH]3)c3cc(F)ccc3O)C4)cc2)CC1` (single isomer, unassigned) [Compound 106], the figures for the IC50 at EGFR L858R/T790M and at EGFR L858R were 0.8 nM and 3 nM, respectively.

As to `CN1CCC(c2ccc(-c3ccc4c(n3)C(=O)N([C@H](c3nc5ccccc5[nH]3)c3cc(F)ccc3O)C4)cc2)CC1` (single isomer, unassigned) [Compound 107], the values for the IC50 against EGFR L858R/T790M and at EGFR L858R were 17 nM and 71 nM, respectively.

Regarding `CN1CCC(c2ccc(-c3ccc4c(=O)n([C@@H](c5nc6ccccc6[nH]5)c5cc(F)ccc5O)ccc4c3)cc2)CC1` (single isomer, unassigned) [Compound 114], the IC50 against EGFR L858R/T790M worked out at 0.9 nM; at EGFR L858R it was 2 nM.

Take `CN1CCC(c2ccc(-c3ccc4c(=O)n([C@H](c5nc6ccccc6[nH]5)c5cc(F)ccc5O)ccc4c3)cc2)CC1` (single isomer, unassigned) [Compound 115]: the IC50 on EGFR L858R/T790M turned out to be 157 nM; against EGFR L858R, 132 nM.

Turning to `CN1CCC(c2ccc(-c3cc(F)c4c(=O)n([C@@H](c5nc6ccccc6[nH]5)c5cc(F)ccc5O)ccc4c3)cc2)CC1` (single isomer, unassigned) [Compound 116, dihydrochloride], the IC50 against EGFR L858R/T790M (dihydrochloride) was found to be 0.2 nM; against EGFR L858R (dihydrochloride), 0.8 nM.

For the compound `CN1CCC(c2ccc(-c3cc(F)c4c(=O)n([C@H](c5nc6ccccc6[nH]5)c5cc(F)ccc5O)ccc4c3)cc2)CC1` (single isomer, unassigned) [Compound 117, 2-[1H-Benzimidazol-2-yl-(5-fluoro-2-hydroxy-phenyl)methyl-8-fluoro-6-[3-fluoro-4-(1-methyl-4-piperidyl)phenyl]isoquinolin-1-one; dihydrochloride], the values for the IC50 on EGFR L858R/T790M (dihydrochloride) and against EGFR L858R (dihydrochloride) were 81 nM and above 100 nM, respectively.

With `O=C1c2cc(-c3ccc(N4CCNCC4)cc3)ccc2CN1C(c1nc2ccccc2[nH]1)c1cc(F)ccc1O` (stereo not drawn) [Compound 021, 2-[1H-Benzimidazol-2-yl-(5-fluoro-2-hydroxy-phenyl)methyl]-6-(4-piperazin-1-yiphenyl)isoindolin-1-one;hydrochioride], the IC50 in test [1] (setting [2]) is 1650 nM; in test [1] (setting [3]) it was 20 nM.

Turning to `CN1CCC(c2ccc(-c3ccc4c(c3)C(=O)N(C(c3nc5ccccc5[nH]3)c3cccc(Cl)c3O)C4)cc2)CC1` (stereo not drawn) [Compound 043, 2-[1H-benzimidazol-2-yl-(3-chloro-2-hydroxy-phenyl)-methyl]-6-[4-(1-methyl-4-piperidyl)phenyl]isoindolin-1-one; dihydrochloride], the IC50 in test [1] (setting [2]) amounted to 4940 nM; in test [1] (setting [3]), 580 nM.

With `Cc1cnc(C(c2cc(F)ccc2O)N2Cc3ccc(-c4ccc(C5CCN(C)CC5)cc4)c(F)c3C2=O)[nH]1` (stereo not drawn) [Compound 093, 7-Fluoro-2-[(5-fluoro-2-hydroxy-phenyl)-(5-methyl-1H-imidazol-2-yl)methyl]-6-[4-(1-methyl-4-piperidyl)phenyl]isoindolin-1-one], the IC50 against EGFR L858R/T790M stood at 4 nM; at EGFR L858R, 3 nM.

Turning to `Cc1c(-c2ccc(C3CCN(C)CC3)cc2)ccc2cn(C(c3nc4ccccc4[nH]3)c3cc(F)ccc3O)nc12` (stereo not drawn) [Compound 096, 2-[1H-Benzimidazol-2-yl-[7-methyl-6-[4-(1-methyl-4-piperidyl)phenyl]indazol-2-yl]methyl]-4-fluoro-phenol; dihydrochloride], the IC50 against EGFR L858R/T790M worked out at 0.8 nM; against EGFR L858R, 3 nM.

In the case of `CN1CCC(c2ccc(-c3cc4nn(C(c5nc6ccccc6[nH]5)c5cc(F)ccc5O)cc4cc3O)cc2)CC1` (stereo not drawn) [Compound 097, 2-[1H-Benzimidazol-2-yl-(5-fluoro-2-hydroxy-phenyl)methyl]-6-[4-(1-methyl-4-piperidyl)phenyl]indazol-5-ol], the values for the IC50 at EGFR L858R/T790M and against EGFR L858R were 36 nM and 16 nM, respectively.

Regarding `Cc1cc2cn(C(c3nc4ccccc4[nH]3)c3cc(F)ccc3O)nc2cc1-c1ccc(C2CCN(C)CC2)cc1` (stereo not drawn) [Compound 098, 2-[1H-Benzimidazol-2-yl-[5-methyl-6-[4-(1-methyl-4-piperidyl)phenyl]-indazol-2-yl]methyl]-4-fluoro-phenol; dihydrochloride], the IC50 against EGFR L858R/T790M is 4 nM; on EGFR L858R, 6 nM.
